ChEMBL document CHEMBL6078688, “Discovery of Novel MyD88 Inhibitor A5S to Alleviate Acute Lung Injury with Favorable Drug-like Properties” (J Med Chem, 2024)
The source made the active and inactive calls. The rule behind the calls is not given here.

Assays:
J774.A1 [1] = assay: Inhibition of MAPK signalling pathway in LPS stimulated mouse J774.A1 cells assessed as downregulation of IRAK4 phosphorylation by Western blotting analysis; format: cell-based
[2] = target: T1, Myeloid differentiation primary response protein MyD88 (Homo sapiens, UniProt Q99836); assay: Inhibition of FLAG tagged and HA tagged MYD88 (unknown origin) expressed in LPS induced HEK293T cells at 20 uM incubated for 1 hr by coimmunoprecipitation analysis; format: cell-based
T1 sequence (Q99836 whole entry): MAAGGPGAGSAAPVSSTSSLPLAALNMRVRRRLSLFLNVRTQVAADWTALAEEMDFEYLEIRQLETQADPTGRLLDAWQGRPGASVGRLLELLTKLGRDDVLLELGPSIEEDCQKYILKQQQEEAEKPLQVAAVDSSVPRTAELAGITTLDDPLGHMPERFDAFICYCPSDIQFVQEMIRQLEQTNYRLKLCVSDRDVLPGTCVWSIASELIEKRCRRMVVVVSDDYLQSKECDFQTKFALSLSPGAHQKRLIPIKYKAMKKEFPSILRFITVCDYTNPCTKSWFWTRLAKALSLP

[3] = Acute toxicity in C57BL/6 mouse assessed as weight loss at 500 mg/kg,po administration measured after 3 days; format: organism-based; settings: in vivo, 72 h, time 3 day
[4] = AUC (0 to infinity) in Sprague-Dawley rat at 20 mg/kg,po administration measured upto 24 hrs by LC-MS/MS analysis; format: ADME, organism-based; settings: in vivo
Mus musculus [5] = assay: Antiinflammatory activity against LPS induced acute lung injury C57BL/6 mouse model assessed as reduction in histopathological change in lung at 20 mg/kg,po administrated with compound for 30 mins followed by LPS treatment and measured after 6 hrs by H and E staining based analysis; format: functional, organism-based; settings: time 6.5 hrs
Mus musculus [6] = assay: Antiinflammatory activity against LPS induced acute lung injury C57BL/6 mouse model assessed as reduction in of leukocytes in alveolar region at 20 mg/kg,po administrated with compound for 30 mins followed by LPS treatment and measured after 6 hrs by immunohistochemical staining based analysis; format: functional, organism-based
Mus musculus [7] = assay: Antiinflammatory activity against LPS induced acute lung injury C57BL/6 mouse model assessed as reduction in TNF-alpha level in serum at 20 mg/kg,po administrated with compound for 30 mins followed by LPS treatment and measured after 6 hrs by ELISA; format: functional, organism-based; settings: time 6.5 hrs
[8] = Cmax in Sprague-Dawley rat at 1 mg/kg,iv administration measured upto 24 hrs by LC-MS/MS analysis; format: ADME, organism-based; settings: in vivo
Mus musculus [9] = assay: Antiinflammatory activity against LPS induced acute lung injury C57BL/6 mouse model assessed as reduction in IL-6 level in BALF at 20 mg/kg,po administrated with compound for 30 mins followed by LPS treatment and measured after 6 hrs by ELISA; format: functional, organism-based; settings: time 6.5 hrs
Mus musculus [10] = assay: Antiinflammatory activity against LPS induced acute lung injury C57BL/6 mouse model assessed as reduction in pulmonary edema by measuring reduction of lung wet to dry ratio at 20 mg/kg,po administrated measured after 48 hrs; format: functional, organism-based
[11] = Tmax in Sprague-Dawley rat at 20 mg/kg,po administration measured upto 24 hrs by LC-MS/MS analysis; format: ADME, organism-based; settings: in vivo
[12] = AUC (0 to infinity) in Sprague-Dawley rat at 1 mg/kg,iv administration measured upto 24 hrs by LC-MS/MS analysis; format: ADME, organism-based; settings: in vivo
Mus musculus [13] = assay: Antiinflammatory activity against LPS induced acute lung injury C57BL/6 mouse model assessed as reduction in total protein concentration in BALF at 20 mg/kg,po administrated with compound for 30 mins followed by LPS treatment and measured after 6 hrs; format: functional, organism-based; settings: time 6.5 hrs
Mus musculus [14] = assay: Antiinflammatory activity in cecal ligation and puncture induced sepsis C57BL/6 mouse model assessed as reduction in inflammatory infiltration in lung at 20 mg/kg,po administrated with compound for 6 hrs followed by CLP induction and measured after 12 hrs by H and E staining based analysis; format: functional, organism-based; settings: time 18.0 hrs
Mus musculus [15] = assay: Antiinflammatory activity in cecal ligation and puncture induced sepsis C57BL/6 mouse model assessed as reduction in IL-6 level in serum at 20 mg/kg,po administrated with compound for 6 hrs followed by CLP induction and measured after 12 hrs by ELISA; format: functional, organism-based; settings: time 18.0 hrs
[16] = Acute toxicity in C57BL/6 mouse assessed as pathological change in kidney at 500 mg/kg,po administration measured upto 11 days by hematoxylin and eosin staining based assay; format: organism-based; settings: in vivo, 264 h, time < 11 day
[17] = AUC (0 to t) in Sprague-Dawley rat at 1 mg/kg,iv administration measured upto 24 hrs by LC-MS/MS analysis; format: ADME, organism-based; settings: in vivo
[18] = target: T1, Myeloid differentiation primary response protein MyD88; assay: Binding affinity to CM5 sensor chip immobilized human MyD88 TIR domain assessed as thermal stabilization at 10 uM incubated for 4 hrs by cellular thermal shift assay
[19] = Acute toxicity in C57BL/6 mouse assessed as pathological change in liver at 500 mg/kg,po administration measured upto 11 days by hematoxylin and eosin staining based assay; format: organism-based; settings: in vivo, 264 h, time < 11 day
Mus musculus [20] = assay: Antiinflammatory activity in cecal ligation and puncture induced sepsis C57BL/6 mouse model assessed as reduction in tissue destruction of lung at 20 mg/kg,po administrated with compound for 6 hrs followed by CLP induction and measured after 12 hrs by H and E staining based analysis; format: functional, organism-based; settings: time 18.0 hrs
[21] = Stability of compound in enzyme free simulated intestinal fluid measured upto 12 hrs; format: physicochemical; settings: simulated gi fluid
Mus musculus [22] = assay: Antiinflammatory activity in cecal ligation and puncture induced sepsis C57BL/6 mouse model assessed as reduction in TNF-alpha level in BALF at 20 mg/kg,po administrated with compound for 6 hrs followed by CLP induction and measured after 12 hrs by ELISA; format: functional, organism-based; settings: time 18.0 hrs
J774.A1 [23] = assay: Inhibition of MAPK signalling pathway in LPS stimulated mouse J774.A1 cells assessed as downregulation of p38 phosphorylation by Western blotting analysis; format: cell-based
Mus musculus [24] = assay: Antiinflammatory activity against LPS induced acute lung injury C57BL/6 mouse model assessed as reduction in TNF-alpha level in BALF at 20 mg/kg,po administrated with compound for 30 mins followed by LPS treatment and measured after 6 hrs by ELISA; format: functional, organism-based; settings: time 6.5 hrs
Mus musculus [25] = assay: Antiinflammatory activity against LPS induced acute lung injury C57BL/6 mouse model assessed as reduction in IL-6 level in serum at 20 mg/kg,po administrated with compound for 30 mins followed by LPS treatment and measured after 6 hrs by ELISA; format: functional, organism-based; settings: time 6.5 hrs
Mus musculus [26] = assay: Antiinflammatory activity against LPS induced acute lung injury C57BL/6 mouse model assessed as reduction in spleen weight at 20 mg/kg,po administrated with compound for 30 mins followed by LPS treatment and measured after 6 hrs; format: functional, organism-based; settings: time 6.5 hrs
[27] = Half life in Sprague-Dawley rat at 1 mg/kg,iv administration measured upto 24 hrs by LC-MS/MS analysis; format: ADME, organism-based; settings: in vivo
[28] = target: Toll-like receptor 4/Ly96 (Mus musculus) (UniProt Q9QUK6+Q9JHF9); assay: Inhibition of MD2/TLR4 protein-protein interaction in LPS-induced mouse J774.A1 cells at 20 uM incubated for 2 hrs by coimmunoprecipitation analysis; format: cell-based
[29] = Stability of compound in enzyme free simulated gastric fluid measured upto 12 hrs; format: physicochemical; settings: simulated gi fluid
Mus musculus [30] = assay: Antiinflammatory activity in cecal ligation and puncture induced sepsis C57BL/6 mouse model assessed as reduction in IL-6 level in BALF at 20 mg/kg,po administrated with compound for 6 hrs followed by CLP induction and measured after 12 hrs by ELISA; format: functional, organism-based; settings: time 18.0 hrs
[31] = Oral bioavailability in Sprague-Dawley rat at 20 mg/kg administration measured upto 24 hrs by LC-MS/MS analysis; format: ADME, organism-based; settings: in vivo
Mus musculus [32] = assay: Antiinflammatory activity in cecal ligation and puncture induced sepsis C57BL/6 mouse model assessed as reduction in TNF-alpha mRNA level in lung at 20 mg/kg,po administrated with compound for 6 hrs followed by CLP induction and measured after 12 hrs by RT-PCR analysis; format: functional, organism-based; settings: time 18.0 hrs
[33] = Cmax in Sprague-Dawley rat at 20 mg/kg,po administration measured upto 24 hrs by LC-MS/MS analysis; format: ADME, organism-based; settings: in vivo

O[C@H](COc1ccc(Br)cc1)CN1CCN(Cc2cc3ccccc3[nH]2)CC1
inhibition (J774.A1 [1]): Active | inhibition [2]: Active | Activity [3]: Toxic | AUC(0-inf) [4]: 3200 ng·h/mL | Activity (Mus musculus [5]): Active | Activity (Mus musculus [6]): Active | Activity (Mus musculus [7]): Active | Cmax [8]: 1080 ng/mL | Activity (Mus musculus [9]): Active | Activity (Mus musculus [10]): Active | Tmax [11]: 3.67 h | AUC(0-inf) [12]: 698 ng·h/mL | Activity (Mus musculus [13]): Active | Activity (Mus musculus [14]): Active | Activity (Mus musculus [15]): Active | Activity [16]: Non-toxic | AUC(0-t) at 24 h [17]: 691 ng·h/mL | Activity [18]: Active | Activity [19]: Non-toxic | Activity (Mus musculus [20]): Active | Stability [21]: Stable | Activity (Mus musculus [22]): Active | inhibition (J774.A1 [23]): Active | Activity (Mus musculus [24]): Active | Activity (Mus musculus [25]): Active | Activity (Mus musculus [26]): Active | half-life [27]: 1.39 h | inhibition [28]: inactive | Stability [29]: Stable | Activity (Mus musculus [30]): Active | bioavailability [31]: 20.7% | Activity (Mus musculus [32]): Active | Cmax [33]: 320 ng/mL
